From the NIST ThermoML archive (doi:10.1016/j.fluid.2010.08.022)

Conditions: 101.33 kPa, Liquid crystal of unknown type; for speed of sound: Sing-around technique in a fixed-path interferometer; for mass density: Vibrating tube method

CCCCCCCC/C=C\CCCCCCCC(=O)[O-].OCC[NH2+]CCO [bis(2-hydroxyethyl)ammonium oleate]
Conditions	mass density [kg/m3]	speed of sound [m/s]
278.14 K	978.16	1601.5
278.39 K	977.996	1600.3
278.64 K	977.834	1599.2
278.89 K	977.67	1598.1
279.14 K	977.506	1596.9
279.39 K	977.342	1595.7
279.64 K	977.177	1594.6
279.89 K	977.017	1593.5
280.15 K	976.852	1592.3
280.4 K	976.689	1591.2
280.65 K	976.525	1590.1
280.89 K	976.361	1589
281.15 K	976.197	1587.9
281.4 K	976.035	1586.8
281.65 K	975.87	1585.7
281.9 K	975.706	1584.6
282.15 K	975.544	1583.5
282.4 K	975.38	1582.5
282.65 K	975.217	1581.4
282.9 K	975.053	1580.3
283.15 K	974.89	1579.3
283.4 K	974.726	1578.2
283.65 K	974.562	1577.2
283.9 K	974.401	1576.2
284.15 K	974.236	1575.1
284.4 K	974.073	1574
284.65 K	973.91	1573
284.9 K	973.745	1572
285.15 K	973.584	1571
285.4 K	973.419	1569.9
285.65 K	973.258	1568.9
285.9 K	973.092	1567.9
286.15 K	972.93	1566.9
286.4 K	972.766	1565.8
286.65 K	972.604	1564.8
286.9 K	972.442	1563.8
287.15 K	972.275	1562.8
287.4 K	972.113	1561.8
287.65 K	971.951	1560.8
287.9 K	971.788	1559.8
288.15 K	971.625	1558.8
288.4 K	971.46	1557.8
288.65 K	971.299	1556.7
288.9 K	971.135	1555.8
289.15 K	970.972	1554.8
289.4 K	970.811	1553.8
289.65 K	970.645	1552.8
289.9 K	970.483	1551.8
290.15 K	970.32	1550.8
290.4 K	970.158	1549.8
290.65 K	969.995	1548.9
290.9 K	969.831	1547.9
291.15 K	969.668	1546.9
291.4 K	969.506	1545.9
291.65 K	969.343	1544.9
291.9 K	969.18	1543.8
292.15 K	969.016	1542.7
292.4 K	968.854	1541.7
292.65 K	968.691	1540.8
292.9 K	968.527	1539.8
293.15 K	968.365	1538.9
293.4 K	968.202	1538
293.65 K	968.039	1537.1
293.9 K	967.876	1536.2
294.15 K	967.713	1535.3
294.4 K	967.548	1534.4
294.65 K	967.388	1533.5
294.91 K	967.225	1532.7
295.15 K	967.061	1531.8
295.4 K	966.898	1530.9
295.66 K	966.735	1530
295.91 K	966.572	1529.1
296.16 K	966.408	1528.3
296.4 K	966.246	1527.4
296.66 K	966.084	1526.5
296.91 K	965.921	1525.6
297.16 K	965.758	1524.8
297.41 K	965.595	1523.9
297.66 K	965.433	1523
297.91 K	965.27	1522.2
298.16 K	965.108	1521.3
298.41 K	964.945	1520.5
298.66 K	964.781	1519.6
298.9 K	964.619	1518.8
299.15 K	964.457	1517.9
299.4 K	964.294	1517.1
299.66 K	964.132	–
299.91 K	963.968	1515.4
300.16 K	963.805	1514.5
300.4 K	963.642	1513.7
300.66 K	963.481	1512.8
300.9 K	963.318	1512
301.16 K	963.154	1511.2
301.41 K	962.991	1510.3
301.66 K	962.83	1509.5
301.91 K	962.666	1508.7
302.16 K	962.503	1507.8
302.41 K	962.341	1507
302.66 K	962.178	1506.1
302.91 K	962.013	1505.3
303.16 K	961.853	1504.5
303.41 K	961.689	1503.6
303.66 K	961.527	1502.8
303.91 K	961.364	1502
304.16 K	961.2	1501.2
304.41 K	961.038	1500.3
304.66 K	960.875	1499.5
304.91 K	960.712	1498.7
305.16 K	960.55	1497.9
305.41 K	960.387	1497
305.66 K	960.223	1496.2
305.91 K	960.061	1495.4
306.16 K	959.898	1494.6
306.4 K	959.736	1493.8
306.65 K	959.573	1493
306.91 K	959.409	1492.1
307.16 K	959.246	1491.3
307.41 K	959.083	1490.5
307.66 K	958.92	1489.7
307.91 K	958.759	1488.9
308.16 K	958.595	1488.1
308.4 K	958.43	1487.3
308.65 K	958.268	1486.5
308.91 K	958.105	1485.7
309.16 K	957.942	1484.9
309.4 K	957.779	1484.1
309.66 K	957.617	1483.3
309.91 K	957.453	1482.5
310.16 K	957.289	1481.7
310.41 K	957.128	1480.9
310.66 K	956.963	1480.1
